According to US11000491B2, “Amino-aryl-benzamide compounds and methods of use thereof” (HEPANOVA, INC., priority 2017, dated 2021):
Read-outs that look alike come from different tables or passages of the source.

How the values were obtained:
Type in all cases: cell-based
SREBP-2 = SREBP-2 expression in cultured primary human hepatocytes; conditions: procedure of Example 6, read-out: SREBP-2 mRNA inhibition (EC50)
Method in brief: (§1)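 Primary human hepatocytes in culture exposed to a range of HPN-01 derivative concentrations; SREBP-1 and SREBP-2 mRNA expression then measured to assess inhibition.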

Huh7 cells = test: LD content in Huh7 cells pre-treated with insulin, Oil-Red-O staining, absorbance OD 540 nm; conditions: Homo sapiens, Huh-7, Huh7 cells, procedure of Example 3; read-out: LD content inhibition (EC50)
Method in brief: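 Huh7 cells, mock-treated or pre-treated with 1 mM insulin, were then exposed to compound at the indicated amounts. Lipid droplets stained with Oil Red O and quantified by absorbance at OD 540 nm.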

SREBP-1 = SREBP-1 expression in cultured primary human hepatocytes; conditions: procedure of Example 6, read-out: SREBP-1 mRNA inhibition (EC50)
Method in brief: as §1

EC50 (Huh7 cells) [nM] | SMILES | EC50 (SREBP-2; Homo sapiens, Hepatocyte) [µM] | EC50 (SREBP-1; Homo sapiens, Hepatocyte) [nM] | EC50 (SREBP-2; Hepatocyte) [µM] | EC50 (SREBP-1; Hepatocyte) [nM] | EC50 (SREBP-2) [µM] | EC50 (SREBP-1) [nM]
500 | CCCC(=O)Nc1ccc(-c2cc(-c3ccc(Cl)cc3)cc(C(N)=O)c2N)cc1 [HPN-01409, 4′-amino-4″-butyramido-4-chloro-[1,1′:3′,1″-terphenyl]-5′-carboxamide] | 1.42 | 1050 |  |  |  | 
580 | NC(=O)c1cc(-c2ccc(Cl)cc2)cc(Oc2cccc(-c3nn[nH]n3)c2)c1N [HPN-01410, 5-(3-(2H-tetrazol-5-yl)phenoxy)-4-amino-4′-chloro-[1,1′-biphenyl]-3-carboxamide] | 4.08 | 2090 |  |  |  | 
940 | CCCNS(=O)(=O)c1cccc(Oc2cc(-c3ccc(Cl)cc3)cc(C(N)=O)c2N)c1 [HPN-01411, 4-amino-4′-chloro-5-(3-(N-propylsulfamoyl)phenoxy)-[1,1′-biphenyl]-3-carboxamide] | 2.84 | 1590 |  |  |  | 
2070 | NC(=O)c1cc(-c2ccc(Cl)cc2)cc(Oc2cccc(S(N)(=O)=O)c2)c1N [HPN-01412, 4-amino-4′-chloro-5-(3-sulfamoylphenoxy)-[1,1′-biphenyl]-3-carboxamide] | 6.11 | 3090 |  |  |  | 
740 | NC(=O)c1cc(-c2ccc(Cl)cc2)cc(Nc2cccc(S(N)(=O)=O)c2)c1N [HPN-01413, 4-amino-4′-chloro-5-((3-sulfamoylphenyl)amino)-[1,1′-biphenyl]-3-carboxamide] | 2.7 | 1520 |  |  |  | 
1570 | NC(=O)c1cc(-c2ccc(Cl)cc2)cc(Sc2cccc(S(N)(=O)=O)c2)c1N [HPN-01414, 4-amino-4′-chloro-5-((3-sulfamoylphenyl)thio)-[1,1′-biphenyl]-3-carboxamide] | 9.86 | 3940 |  |  |  | 
660 | NC(=O)c1cc(-c2ccc(Br)cc2)cc(Oc2cccc(S(N)(=O)=O)c2)c1N [HPN-01415, 4-amino-4′-bromo-5-(3-sulfamoylphenoxy)-[1, 1′-biphenyl]-3-carboxamide] | 6.45 | 2350 |  |  |  | 
1260 | N=C(N)Nc1ccc(-c2cc(-c3ccc(Cl)cc3)cc(C(N)=O)c2N)cc1 [HPN-01417, 4′-amino-4-chloro-4″-guanidino-[1,1′:3′,1″-terphenyl]-5′-carboxamide] | 4.92 | 3150 |  |  |  | 
980 | NC(=O)c1cc(-c2ccc(Cl)cc2)cc(-c2ccc(NC(N)=S)cc2)c1N [HPN-01418, 4′-amino-4-chloro-4″-thioureido-[1,1′:3′,1″-terphenyl]-5′-carboxamide] | 2.45 | 2690 |  |  |  | 
500 | NC(=O)c1cc(-c2ccc(Cl)cc2)cc(-c2ccc(NC(=O)CO)cc2)c1N [HPN-01419, 4′-amino-4-chloro-4″-(2-hydroxyacetamido)-[1,1′:3′,1″-terphenyl]-5′-carboxamide] | 3.53 | 1820 |  |  |  | 
420 | NC(=O)c1cc(-c2ccc(Cl)cc2)cc(-c2ccc(N3CC=NC3=O)cc2)c1N [HPN-01420, 4′-amino-4-chloro-4″-(2-oxo-2,5-dihydro-1H-imidazol-1-yl)-[1,1′:3′,1″-terphenyl]-5′-carboxamide] | 2.37 | 2140 |  |  |  | 
750 | NC(=O)c1cc(-c2ccc(Cl)cc2)cc(-c2ccc(-c3c[nH]nn3)cc2)c1N [HPN-01421, 4′-amino-4-chloro-4″-(1H-1,2,3-triazol-4-yl)-[1,1′:3′,1″-terphenyl]-5′-carboxamide] | 2.22 | 1510 |  |  |  | 
1440 | NC(=O)c1cc(-c2ccc(Cl)cc2)cc(Oc2cccc(S(=O)(=O)NCCO)c2)c1N [HPN-01422, 4-amino-4′-chloro-5-(3-(N-(2-hydroxyethyl)sulfamoyl)phenoxy)-[1, 1′-biphenyl]-3-carboxamide] | 3.93 | 1520 |  |  |  | 
810 | NC(=O)c1cc(-c2ccc(Cl)cc2)cc(OCCc2ccc(S(N)(=O)=O)cc2)c1N [HPN-01423, 4-amino-4′-chloro-5-(4-sulfamoylphenethoxy)-[1,1′-biphenyl]-3-carboxamide] | 2.37 | 1360 |  |  |  | 
1450 | NC(=O)c1cc(-c2ccc(Cl)cc2)cc(OCc2ccc(S(N)(=O)=O)cc2)c1N [HPN-01424, 4-amino-4′-chloro-5-((4-sulfamoylbenzyl)oxy)-[1,1′-biphenyl]-3-carboxamide] | 4.31 | 2690 |  |  |  | 
6480 | NC(=O)c1cc(-c2ccc(Cl)cc2)cc(NCCc2ccc(S(N)(=O)=O)cc2)c1N [HPN-01425, 4-amino-4′-chloro-5-((4-sulfamoylphenethyl)amino)-[1,1′-biphenyl]-3-carboxamide] | 3.44 | 2830 |  |  |  | 

EC50 (Huh7 cells) [nM] | SMILES | EC50 (SREBP-2; Homo sapiens, Hepatocyte) [µM] | EC50 (SREBP-1; Homo sapiens, Hepatocyte) [nM] | EC50 (SREBP-2; Hepatocyte) [µM] | EC50 (SREBP-1; Hepatocyte) [nM] | EC50 (SREBP-2) [µM] | EC50 (SREBP-1) [nM]
1150 | NC(=O)c1cc(-c2ccc(Cl)cc2)cc(NCc2ccc(S(N)(=O)=O)cc2)c1N [HPN-01426, 4-amino-4′-chloro-5-((4-sulfamoylbenzyl)amino)-[1,1′-biphenyl]-3-carboxamide] | 9.4 | 11000 |  |  |  | 
1110 | NC(=O)c1cc(-c2ccc(Cl)cc2)cc(N2CCN(S(N)(=O)=O)CC2)c1N [HPN-01427, 4-amino-4′-chloro-5-(4-sulfamoylpiperazin-1-yl)-[1,1′-biphenyl]-3-carboxamide] | 3.83 | 3320 |  |  |  | 
1140 | NC(=O)c1cc(-c2ccc(Cl)cc2)cc(-c2ccc(S(N)(=O)=O)cn2)c1N [HPN-01428, 4-amino-4′-chloro-5-(5-sulfamoylpyridin-2-yl)-[1,1′-biphenyl]-3-carboxamide] | 18.8 | 5650 |  |  |  | 
140 | NC(=O)c1cc(-c2ccc(Cl)cc2)cc(-c2ccc(NC(=O)Nc3cccnc3)cc2)c1N [HPN-01429, 4′-amino-4-chloro-4″-(3-(pyridin-3-yl)ureido)-[1,1′:3′,1″-terphenyl]-5′-carboxamide] | 3.98 | 6690 |  |  |  | 
5360 | CC(C)NC(=O)Nc1ccc(-c2cc(-c3ccc(Cl)cc3)cc(C(N)=O)c2N)cc1 [HPN-01430, 4′-amino-4-chloro-4″-(3-isopropylureido)-[1,1′:3′,1″-terphenyl]-5′-carboxamide] | 4.37 | 1880 |  |  |  | 
1670 | CC(=O)Nc1c(C(N)=O)cc(-c2ccc(Cl)cc2)cc1-c1ccc(S(N)(=O)=O)cc1 [HPN-01501, 4′-acetamido-4-chloro-4″-sulfamoyl-[1,1′:3′,1″-terphenyl]-5′-carboxamide] | 8.55 | 5040 |  |  |  | 
790 | NC(=O)c1cc(-c2ccc(Cl)cc2)cc(-c2ccc(S(N)(=O)=O)cc2)c1NC(=O)CO [HPN-01502, 4-chloro-4′-(2-hydroxyacetamido)-4″-sulfamoyl-[1,1′:3′,1″-terphenyl]-5′-carboxamide] | 2.3 | 1650 |  |  |  | 
700 | NC(=O)c1cc(-c2ccc(Cl)cc2)cc(-c2ccc(S(N)(=O)=O)cc2)c1NC(=O)C1CC1 [HPN-01503, 4-chloro-4′-(cyclopropanecarboxamido)-4″-sulfamoyl-[1,1′:3′,1″-terphenyl]-5′-carboxamide] | 6.48 | 3940 |  |  |  | 
460 | NCC(=O)Nc1c(C(N)=O)cc(-c2ccc(Cl)cc2)cc1-c1ccc(S(N)(=O)=O)cc1 [HPN-01504, 4′-(2-aminoacetamido)-4-chloro-4″-sulfamoyl-[1,1′:3′,1″-terphenyl]-5′-carboxamide] | 1.11 | 730 |  |  |  | 
6480 | NC(=O)Nc1ccc(-c2cc(-c3ccc(Cl)cc3)cc(C(N)=O)c2NC(=O)CO)cc1 [HPN-01506, 4-chloro-4′-(2-hydroxyacetamido)-4″-ureido-[1,1′:3′,1″-terphenyl]-5′-carboxamide] | 17.1 | 7310 |  |  |  | 
680 | NC(=O)c1cc(-c2ccc(Br)cc2)cc(-c2ccc(S(N)(=O)=O)cc2)c1NC(=O)CCO [HPN-01513, 4-bromo-4′-(3-hydroxypropanamido)-4″-sulfamoyl-[1, 1′:3′,1″-terphenyl]-5′-carboxamide] | 2.88 | 1630 |  |  |  | 
1150 | NCCC(=O)Nc1c(C(N)=O)cc(-c2ccc(Br)cc2)cc1-c1ccc(S(N)(=O)=O)cc1 [HPN-01514, 4′-(3-aminopropanamido)-4-bromo-4″-sulfamoyl-[1,1′:3′,1″-terphenyl]-5′-carboxamide] | 5.1 | 2830 |  |  |  | 
1100 | NC(=O)c1cc(-c2ccc(Cl)cc2)cc(-c2ccc(S(N)(=O)=O)cc2)c1NC(=O)CCO [HPN-01516, 4-chloro-4′-(3-hydroxypropanamido)-4″-sulfamoyl-[1, 1′:3′,1″-terphenyl]-5′-carboxamide] | 2.07 | 1910 |  |  |  | 
480 | NCCC(=O)Nc1c(C(N)=O)cc(-c2ccc(Cl)cc2)cc1-c1ccc(S(N)(=O)=O)cc1 [HPN-01517, 4′-(3-aminopropanamido)-4-chloro-4″-sulfamoyl-[1, 1′:3′,1″-terphenyl]-5′-carboxamide] |  |  |  |  | 2.94 | 1960
810 | CCCC(=O)Nc1c(C(N)=O)cc(-c2ccc(Cl)cc2)cc1-c1ccc(NC(N)=O)cc1 [HPN-01519, 4′-butyramido-4-chloro-4″-ureido-[1,1′:3′,1″-terphenyl]-5′-carboxamide] | 2.75 | 1510 |  |  |  | 

SMILES | EC50 (Huh7 cells) [nM] | EC50 (SREBP-2; Homo sapiens, Hepatocyte) [µM] | EC50 (SREBP-1; Homo sapiens, Hepatocyte) [nM] | EC50 (SREBP-2; Hepatocyte) [µM] | EC50 (SREBP-1; Hepatocyte) [nM] | EC50 (SREBP-2) [µM] | EC50 (SREBP-1) [nM]
NC(=O)c1cc(-c2ccc(Br)cc2)cc(-c2ccc(OP(=O)(O)O)cc2)c1N [HPN-01416, 6′-amino-4″-bromo-5′-carbamoyl-[1,1′:3′,1″-terphenyl]-4-yl dihydrogen phosphate] | 1510 |  |  | 4.01 | 3020 |  | 
